The record followed here is ChEMBL document CHEMBL1201862, “PubChem BioAssay data set” (2004).

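All cell lines were grown in 96-well plates and treated with compound for 48 hours. GI50 marks 50% less growth.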 Active and inactive are the calls of the source. Cut-off read from the data, not from the text of the source: active = GI50 up to about 1.1 µM and inactive = higher. Where only a bound is given, the exact number is not on record here.

Common to all, as to assay: inhibition of tumour cell growth, NCI panel, 48 h
In assay [1] the test system is COLO 205.
Assay [2] has as its system UO-31.
Assay [3] has as its system HL-60.
Assay [4] has as its system SF-539.
Assay [5] has as its system RXF 393.
The test system of assay [6] is IGROV-1.
Assay [7] deals with SNB-78.
In assay [8] the test system is SK-MEL-28.
Assay [9] relates to EKVX.
Assay [10] concerns LOX IMVI.
Assay [11] has as its system U-251.
Assay [12] relates to HOP-62.
Assay [13] concerns OVCAR-4.
Assay [14] has as its system HT-29.
For assay [15], the system named is PC-3.
Assay [16] concerns MDA-MB-435.
Assay [17] relates to BT-549.
The test system of assay [18] is MCF7.
Assay [19] concerns T47D.
Assay [20] concerns DU-145.

For `O=c1/c(=C/c2ccc3c(c2)OCO3)sc2nnc(Cc3ccccc3)n12`, the GI50 in assay [1], in [2], in assay [3], in assay [4], in assay [5] and in assay [6] was > 100 µM (inactive) in each case. The GI50 in [7], in [8], in assay [9], in assay [10], in [11] and in assay [12] was > 100 µM (inactive) each time. The GI50 in [13] was > 100 µM (inactive).
As to `COc1ccccc1-c1cc(=O)c2ccccc2[nH]1`, the GI50 in assay [1] is > 100 µM (inactive); in assay [2] it was 60.7 µM (inactive); in [3], 43.8 µM (inactive); in assay [4], > 100 µM (inactive); in [5], > 100 µM (inactive); in [6], 99.8 µM (inactive). The GI50 in assay [7], in assay [8], in assay [9], in assay [10], in [11] and in [12] was > 100 µM (inactive) throughout.
With `C1=NN(Cc2ccccc2)C(N(Cc2ccccc2)Cc2ccccc2)N1` (stereo unspecified), the GI50 was 16.9 µM (inactive) in assay [1]; 14.2 µM (inactive) in assay [2]; 4.91 µM (inactive) in assay [3]; 15.4 µM (inactive) in assay [4]; 16.2 µM (inactive) in [5]; 14.5 µM (inactive) in assay [6]. Further, the GI50 in assay [7] was 29.6 µM (inactive); in [8], 19 µM (inactive); in assay [9], 20.3 µM (inactive); in assay [10], 15.3 µM (inactive); in assay [14] it was 15.2 µM (inactive); in [11] it was 16.7 µM (inactive). Also, the GI50 in assay [12] is 18.2 µM (inactive); in [13] it was 15.8 µM (inactive).
For the compound `O=C(NC(=O)c1c(Cl)nc2sccn12)Nc1ccc(Cl)cc1`, the GI50 in [1] was > 100 µM (inactive); in assay [2], 67.1 µM (inactive); in assay [15] it was 53 µM (inactive); in assay [3], > 100 µM (inactive); in assay [4] it was 30 µM (inactive); in assay [16] it was > 100 µM (inactive). Besides, the GI50 in assay [5] was 30.9 µM (inactive); in assay [17], 28.4 µM (inactive); in assay [18], 15.5 µM (inactive); in [6] it was 49.4 µM (inactive); in assay [7] it was 43.1 µM (inactive); in [8] it was > 100 µM (inactive). The GI50 is > 91.6 µM (inactive) in assay [9]; 63.4 µM (inactive) in assay [10]; > 100 µM (inactive) in assay [14]; 24.8 µM (inactive) in assay [11]; 19.5 µM (inactive) in assay [12]; 75.3 µM (inactive) in [13]. Further, the GI50 in assay [19] is 13.7 µM (inactive); in [20] it was > 83.4 µM (inactive).
On to `C=C1C(=O)OC2(C)C3CCC(C3)C12` (stereo unspecified), for which the GI50 in [1] was 23.1 µM (inactive); in assay [2] it was > 100 µM (inactive); in assay [3] it was 19.9 µM (inactive); in [4], 98.2 µM (inactive); in [6], > 100 µM (inactive); in assay [7], 34.4 µM (inactive). Moreover, the GI50 is > 100 µM (inactive) in [8]; 81.8 µM (inactive) in [9]; 80.2 µM (inactive) in assay [10]; 34.9 µM (inactive) in [14]; > 100 µM (inactive) in assay [11]; > 100 µM (inactive) in assay [12]. Besides, the GI50 in [13] is 54.5 µM (inactive).
Turning to `COC(=O)C1(C)C=C(Nc2ccccc2)C(=O)N1c1ccccc1` (stereo unspecified), the GI50 in [2] is 58.3 µM (inactive); in assay [3], > 100 µM (inactive); in [4] it was > 100 µM (inactive); in [5] it was > 100 µM (inactive); in assay [6] it was > 100 µM (inactive); in assay [7], > 100 µM (inactive). The GI50 in assay [8], in [9], in assay [10], in assay [14], in assay [11] and in [12] was > 100 µM (inactive) each time. In addition, the GI50 in assay [13] was > 100 µM (inactive).
As to `O=C(CSC(=S)N1CCOCC1)Nc1nc2c(s1)CCCC2`, the GI50 in assay [1] is > 100 µM (inactive); in [2], 41.4 µM (inactive); in assay [3] it was 27.7 µM (inactive); in [4] it was > 100 µM (inactive); in assay [6] it was > 100 µM (inactive); in assay [7], > 100 µM (inactive). The GI50 in assay [8] was > 100 µM (inactive); in assay [9], 99.5 µM (inactive); in assay [10], > 100 µM (inactive); in assay [14], > 100 µM (inactive); in assay [11] it was > 100 µM (inactive); in assay [12], > 100 µM (inactive). Moreover, the GI50 in assay [13] is > 100 µM (inactive).
Turning to `C=CCC1(C)CCCCC1(O)C[S+]([O-])c1ccccc1` (stereo unspecified), the GI50 was > 100 µM (inactive) in assay [1]; > 100 µM (inactive) in assay [2]; 54.5 µM (inactive) in assay [3]; > 100 µM (inactive) in [4]; > 100 µM (inactive) in assay [5]; > 100 µM (inactive) in [6]. Further, the GI50 in [7], in assay [8], in [9], in [10], in assay [14] and in assay [11] was > 100 µM (inactive) in each case. The GI50 in [12] and in assay [13] was > 100 µM (inactive) throughout.
Take `CCOc1ccc(N2C(=O)C3c4[nH]c5ccccc5c4C4CCC(C(C)(C)C)CC4C3C2=O)cc1` (stereo unspecified): the GI50 in assay [1] is 36.1 µM (inactive); in assay [2], 69.2 µM (inactive); in assay [3], 44.9 µM (inactive); in assay [4], > 100 µM (inactive); in assay [5] it was 21.8 µM (inactive); in [6], > 100 µM (inactive). The GI50 in assay [7] was 90.2 µM (inactive); in assay [8], > 100 µM (inactive); in assay [9] it was > 100 µM (inactive); in [14] it was 32.1 µM (inactive); in assay [11], > 100 µM (inactive); in assay [12], > 100 µM (inactive). Also, the GI50 in assay [13] was > 100 µM (inactive).
Take `N#CCCN(CCC#N)c1ccc(/C=N\c2nc(-c3ccccc3)cs2)cc1`: the GI50 in [1] is > 100 µM (inactive); in assay [2], > 100 µM (inactive); in [3], > 100 µM (inactive); in assay [4], > 100 µM (inactive); in [5], 39.7 µM (inactive); in assay [6], > 100 µM (inactive). Besides, the GI50 in assay [7] was > 100 µM (inactive); in [8] it was > 100 µM (inactive); in [9] it was > 100 µM (inactive); in [10], > 100 µM (inactive); in [14], > 100 µM (inactive); in [12], 84.3 µM (inactive). Besides, the GI50 in assay [13] is 63.4 µM (inactive).
With `COc1cc(O)c(C(=O)CC(C)=O)c(OC)c1`, the GI50 in assay [1], in assay [2], in assay [3], in [4], in assay [5] and in assay [6] was > 100 µM (inactive) throughout. In addition, the GI50 in assay [7], in [8], in [9], in assay [10], in assay [14] and in assay [11] was > 100 µM (inactive) each time. Besides, the GI50 in [12] and in assay [13] was > 100 µM (inactive) each time.
As to `O=[N+]([O-])c1cccc(Nc2nc(Cl)nc(Cl)n2)c1`, the GI50 in [1], in assay [2], in assay [4], in assay [7], in assay [8] and in assay [9] was > 100 µM (inactive) throughout. For the same compound, the GI50 in [10] was > 100 µM (inactive); in assay [14] it was > 100 µM (inactive); in assay [11], > 100 µM (inactive); in assay [12], > 100 µM (inactive); in [13], 34.4 µM (inactive).
In the case of `COc1cc(O)c(C(=O)/C=C/c2ccc(O)cc2)cc1Oc1ccc(/C=C/C(=O)c2ccc(O)cc2O)cc1` [RHUSCHALCONE III], the GI50 in [1] was 8.43 µM (inactive); in assay [2] it was 9.48 µM (inactive); in [15], 7.21 µM (inactive); in [3], 10.4 µM (inactive); in assay [4], 8.89 µM (inactive); in [16], 8.77 µM (inactive). For the same compound, the GI50 in assay [5] is 8.2 µM (inactive); in assay [17], 8.79 µM (inactive); in [18] it was 8.69 µM (inactive); in assay [6] it was 7.66 µM (inactive); in assay [8], 8.41 µM (inactive); in assay [9] it was 13 µM (inactive). Moreover, the GI50 is 8.45 µM (inactive) in assay [10]; 7.57 µM (inactive) in assay [14]; 7.98 µM (inactive) in assay [11]; 10.8 µM (inactive) in assay [12]; 8.07 µM (inactive) in [13]; 15.3 µM (inactive) in assay [19]. The GI50 in assay [20] was 10.2 µM (inactive).
`CCC1(O)C(=O)OCc2c1cc1n(c2=O)Cc2cc3c(N)cccc3nc2-1` (stereo unspecified) [RS-9-Aminocamptothecin]: the GI50 is 0.741 µM (active) in assay [1]; < 0.0109 µM (active) in assay [2]; 0.115 µM (active) in assay [15]; < 0.0128 µM (active) in assay [3]; < 0.014 µM (active) in assay [4]; 0.0607 µM (active) in assay [16]. Also, the GI50 in [5] was 0.0447 µM (active); in assay [17], 0.0668 µM (active); in assay [18], < 0.01 µM (active); in assay [6], 0.327 µM (active); in [7] it was 0.995 µM (active); in assay [8], 0.188 µM (active). For the same compound, the GI50 was 1.2 µM (inactive) in assay [9]; < 0.01 µM (active) in assay [10]; 0.118 µM (active) in [14]; < 0.0115 µM (active) in assay [11]; < 0.0119 µM (active) in assay [12]; 0.345 µM (active) in [13]. For the same compound, in [20], the GI50 was < 0.011 µM (active).
